Data taken from ChEMBL document CHEMBL3621142, “Discovery and Evaluation of Clinical Candidate AZD3759, a Potent, Oral Active, Central Nervous System-Penetrant, Epidermal Growth Factor Receptor Tyrosine Kinase Inhibitor” (J Med Chem, 2015).
Activity calls are given as the source filed them. The rule behind the calls is not given here.

Assays:
BCRP [1] = assay: in vitro; settings: dog
Description: Efflux ratio of permeability from basolateral to apical side over apical to basolateral side in BCRP transfected MDCK2 cells

[2] = Permeability from apical to basolateral side in MDCK2-MDR1 cells; format: ADME, cell-based, Canis lupus familiaris, MDCK-II; settings: dog; for Papp A→B: MDCK-MDR1
[3] = Ratio of unbound AUC (0 to 24 hrs) in brain to blood of Han Wistar rat at 20 mg/kg, po by LC-MS/MS analysis; format: ADME, organism-based; settings: brain and blood, read-out: K(p,uu,brain)
[4] = (§1) Fraction unbound in Han Wistar rat brain at 5 uM by equilibrium dialysis method; format: ADME, tissue-based; settings: Han Wistar, brain
[5] = (§2) Fraction unbound in Han Wistar rat blood at 5 uM by equilibrium dialysis method; format: ADME, tissue-based; settings: Han Wistar
[6] = Ratio of unbound AUC (0 to 24 hrs) in CSF to blood of Han Wistar rat at 20 mg/kg, po by LC-MS/MS analysis; format: ADME, organism-based; settings: CSF and blood
MDR1 (P-gp) = assay: Efflux ratio of permeability from basolateral to apical side over apical to basolateral side in MDCK2-MDR1 cells; format: ADME, cell-based, Canis lupus familiaris; settings: dog, MDCK-MDR1
BCRP [7] = assay: Permeability from apical to basolateral side in BCRP transfected MDCK2 cells; format: ADME, cell-based, Canis lupus familiaris, MDCK-II; settings: dog
[8] = (§3) AUC (0 to 7 hrs) in Han Wistar rat CSF at 2 mg/kg, po by LC-MS/MS analysis; format: ADME, organism-based, Cerebrospinal fluid; set-up: time < 7 hr, dose 2 mg/kg, route oral; settings: Han Wistar, CSF
[9] = Clearance in Han Wistar rat at 1 mg/kg, iv; format: ADME, organism-based; settings: in vivo
[10] = (§4) Volume of distribution at steady state in Han Wistar rat at 1 mg/kg, iv; format: ADME, organism-based; settings: Han Wistar, in vivo, read-out: Vdss
[11] = (§5) AUC (0 to 7 hrs) in Han Wistar rat brain at 2 mg/kg, po by LC-MS/MS analysis; format: ADME, organism-based; set-up: dose 2 mg/kg, time < 7 hr, route oral; settings: Han Wistar, brain
[12] = molecular target: Epidermal growth factor receptor (Homo sapiens, UniProt P00533, L858R); format: cell-based, H3255
Sequence of Epidermal growth factor receptor (Homo sapiens, UniProt P00533, L858R) (P00533 25-1210 L858R limits assumed): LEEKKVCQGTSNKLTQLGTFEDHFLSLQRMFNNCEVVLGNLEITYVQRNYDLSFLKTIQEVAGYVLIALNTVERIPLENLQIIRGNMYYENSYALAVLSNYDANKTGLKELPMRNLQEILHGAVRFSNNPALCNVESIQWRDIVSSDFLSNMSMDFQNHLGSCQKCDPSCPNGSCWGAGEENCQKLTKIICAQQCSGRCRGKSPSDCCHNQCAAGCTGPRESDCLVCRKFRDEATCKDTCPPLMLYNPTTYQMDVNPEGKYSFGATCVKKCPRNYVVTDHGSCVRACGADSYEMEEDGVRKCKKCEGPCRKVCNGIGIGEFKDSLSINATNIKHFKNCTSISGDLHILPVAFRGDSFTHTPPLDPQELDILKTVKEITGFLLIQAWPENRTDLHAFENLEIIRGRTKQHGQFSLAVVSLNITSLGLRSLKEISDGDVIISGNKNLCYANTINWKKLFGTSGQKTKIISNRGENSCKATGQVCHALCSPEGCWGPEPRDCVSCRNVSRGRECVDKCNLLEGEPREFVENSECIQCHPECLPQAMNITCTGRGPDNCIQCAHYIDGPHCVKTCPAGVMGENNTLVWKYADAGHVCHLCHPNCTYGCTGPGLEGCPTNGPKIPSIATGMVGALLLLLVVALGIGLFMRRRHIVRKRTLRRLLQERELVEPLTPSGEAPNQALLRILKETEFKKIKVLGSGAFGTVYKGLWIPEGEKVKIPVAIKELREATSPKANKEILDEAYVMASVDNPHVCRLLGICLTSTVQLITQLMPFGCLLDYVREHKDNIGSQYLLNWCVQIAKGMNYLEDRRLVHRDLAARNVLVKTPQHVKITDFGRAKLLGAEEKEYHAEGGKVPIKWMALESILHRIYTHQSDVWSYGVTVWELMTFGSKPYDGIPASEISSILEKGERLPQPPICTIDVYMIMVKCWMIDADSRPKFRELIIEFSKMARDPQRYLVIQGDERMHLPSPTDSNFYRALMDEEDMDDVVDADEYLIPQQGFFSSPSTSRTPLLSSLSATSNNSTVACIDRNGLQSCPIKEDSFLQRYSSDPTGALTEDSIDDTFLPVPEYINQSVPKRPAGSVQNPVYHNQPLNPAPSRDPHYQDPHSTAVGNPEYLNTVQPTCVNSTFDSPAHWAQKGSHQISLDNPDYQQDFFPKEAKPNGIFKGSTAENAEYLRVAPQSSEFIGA

[13] = (§6) AUC (0 to 7 hrs) in Han Wistar rat blood at 2 mg/kg, po by LC-MS/MS analysis; format: ADME, organism-based; set-up: dose 2 mg/kg, time < 7 hr, route oral; settings: Han Wistar, blood
[14] = (§7) Oral bioavailability in Han Wistar rat at 2 mg/kg; format: ADME, organism-based; settings: Han Wistar, in vivo
[15] = (§8) Elimination half life in Han Wistar rat at 1 mg/kg, iv; format: ADME, organism-based; settings: Han Wistar, in vivo, read-out: beta t1/2 (converted)
[16] = Ratio of unbound AUC (0 to 7 hrs) in CSF to blood of Han Wistar rat at 2 mg/kg, po by LC-MS/MS analysis; format: ADME, organism-based; settings: for Kp uu: Han Wistar, CSF and blood
[17] = Ratio of unbound AUC (0 to 7 hrs) in brain to blood of Han Wistar rat at 2 mg/kg, po by LC-MS/MS analysis; format: ADME, organism-based; settings: for Kp uu: Han Wistar, brain and blood, read-out: K(p,uu,brain)
[18] = (§9) AUC(0 to 24 hrs) in Han Wistar rat at 2 mg/kg, po; format: ADME, organism-based; set-up: dose 2 mg/kg, time < 24 hr, route oral; settings: Han Wistar, in vivo
PC-9 [19] = assay: Antitumor activity against human PC9 cells expressing EGFR exon19 deletion mutant xenografted in mouse at 15 mg/kg, qd measured after 4 weeks; format: functional, organism-based
Mus musculus = assay: Toxicity in PC9 cells expressing EGFR exon19 deletion mutant xenografted mouse assessed as loss of body weight at 15 mg/kg, qd; format: organism-based, PC-9; settings: in vivo
PC-9 [20] = assay: Antitumor activity against human PC9 cells expressing EGFR exon19 deletion mutant xenografted in mouse assessed as tumor regression at 15 mg/kg, qd measured after 4 weeks; format: functional, organism-based
Cerebrospinal fluid = assay: as §3; format: ADME, organism-based; set-up: time < 7 hr, dose 2 mg/kg, route oral; settings: in vivo, 7 h
Brain [21] = assay: as §1; format: ADME, tissue-based; settings: 5 µM
Rattus norvegicus [22] = assay: as §4; format: ADME, organism-based; settings: in vivo
Brain [23] = assay: as §5; format: ADME, organism-based; set-up: dose 2 mg/kg, time < 7 hr, route oral; settings: in vivo, 7 h
Blood [24] = assay: as §6; format: ADME, organism-based; set-up: dose 2 mg/kg, time < 7 hr, route oral; settings: in vivo, 7 h
Rattus norvegicus [25] = assay: as §7; format: ADME, organism-based; settings: in vivo
Blood [26] = assay: as §2; format: ADME, tissue-based; settings: 5 µM
Rattus norvegicus [27] = assay: as §8; format: ADME, organism-based; settings: in vivo
Rattus norvegicus [28] = assay: as §9; format: ADME, organism-based; set-up: dose 2 mg/kg, time < 24 hr, route oral; settings: in vivo, 24 h
[29] = AUC (0 to 7 hrs) in Han Wistar rat CSF at 20 mg/kg, po measured after 0.5 to 24 hrs by LC-MS/MS analysis; format: ADME, organism-based, Cerebrospinal fluid; set-up: time < 7 hr, dose 20 mg/kg, route oral
[30] = AUC (0 to 7 hrs) in Han Wistar rat blood at 20 mg/kg, po measured after 0.5 to 24 hrs by LC-MS/MS analysis; format: ADME, organism-based; set-up: time < 7 hr, dose 20 mg/kg, route oral
[31] = AUC (0 to 7 hrs) in Han Wistar rat brain at 20 mg/kg, po measured after 0.5 to 24 hrs by LC-MS/MS analysis; format: ADME, organism-based; set-up: time < 7 hr, dose 20 mg/kg, route oral
[32] = Clearance in Han Wistar rat at 2 mg/kg, po; format: ADME, organism-based; settings: in vivo
Rattus norvegicus [33] = assay: Volume of distribution at steady state in Han Wistar rat at 2 mg/kg, […]; format: ADME, organism-based; settings: in vivo
[34] = molecular target: Epidermal growth factor receptor (Homo sapiens, UniProt P00533, EX19DEL); assay: Inhibition of EGFR exon19 deletion mutant phosphorylation in human PC9 cells; format: cell-based, PC-9
Sequence of Epidermal growth factor receptor (Homo sapiens, UniProt P00533, EX19DEL) (P00533 whole entry, looked up, stated change not applied): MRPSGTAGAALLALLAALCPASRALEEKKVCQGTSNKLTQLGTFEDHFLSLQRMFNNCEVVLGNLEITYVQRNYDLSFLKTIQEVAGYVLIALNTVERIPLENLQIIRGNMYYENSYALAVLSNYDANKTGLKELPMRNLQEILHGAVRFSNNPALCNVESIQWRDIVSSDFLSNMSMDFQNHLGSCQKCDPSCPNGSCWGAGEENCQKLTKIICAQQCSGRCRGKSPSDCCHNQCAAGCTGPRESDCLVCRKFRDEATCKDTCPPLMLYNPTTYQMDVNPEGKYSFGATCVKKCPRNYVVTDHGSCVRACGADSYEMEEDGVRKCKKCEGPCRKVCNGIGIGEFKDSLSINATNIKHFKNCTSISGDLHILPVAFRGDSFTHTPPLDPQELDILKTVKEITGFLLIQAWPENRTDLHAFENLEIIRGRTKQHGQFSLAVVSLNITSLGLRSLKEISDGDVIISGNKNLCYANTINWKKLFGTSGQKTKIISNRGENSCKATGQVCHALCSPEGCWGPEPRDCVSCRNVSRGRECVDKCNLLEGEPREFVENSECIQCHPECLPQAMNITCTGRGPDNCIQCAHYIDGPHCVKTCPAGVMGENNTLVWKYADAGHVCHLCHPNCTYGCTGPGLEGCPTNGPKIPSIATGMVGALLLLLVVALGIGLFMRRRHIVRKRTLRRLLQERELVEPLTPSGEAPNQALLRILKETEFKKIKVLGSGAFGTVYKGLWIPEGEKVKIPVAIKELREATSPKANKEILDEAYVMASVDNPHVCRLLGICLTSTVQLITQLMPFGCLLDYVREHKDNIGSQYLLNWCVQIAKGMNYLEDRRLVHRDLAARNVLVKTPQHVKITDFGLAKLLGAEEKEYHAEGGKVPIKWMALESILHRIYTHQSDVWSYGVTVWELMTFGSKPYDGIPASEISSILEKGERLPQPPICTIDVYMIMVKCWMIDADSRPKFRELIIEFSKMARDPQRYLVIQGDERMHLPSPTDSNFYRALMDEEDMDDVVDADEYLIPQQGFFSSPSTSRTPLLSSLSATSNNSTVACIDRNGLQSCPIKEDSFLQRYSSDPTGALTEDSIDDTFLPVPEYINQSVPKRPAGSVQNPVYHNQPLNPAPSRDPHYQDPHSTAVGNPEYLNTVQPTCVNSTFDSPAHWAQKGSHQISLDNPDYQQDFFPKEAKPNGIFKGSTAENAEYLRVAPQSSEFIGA

Cytochrome P450 2D6 = Cytochrome P450 2D6 (Homo sapiens, UniProt P10635); assay: Inhibition of human CYP2D6; format: ADME
Sequence of Cytochrome P450 2D6 (P10635 whole entry): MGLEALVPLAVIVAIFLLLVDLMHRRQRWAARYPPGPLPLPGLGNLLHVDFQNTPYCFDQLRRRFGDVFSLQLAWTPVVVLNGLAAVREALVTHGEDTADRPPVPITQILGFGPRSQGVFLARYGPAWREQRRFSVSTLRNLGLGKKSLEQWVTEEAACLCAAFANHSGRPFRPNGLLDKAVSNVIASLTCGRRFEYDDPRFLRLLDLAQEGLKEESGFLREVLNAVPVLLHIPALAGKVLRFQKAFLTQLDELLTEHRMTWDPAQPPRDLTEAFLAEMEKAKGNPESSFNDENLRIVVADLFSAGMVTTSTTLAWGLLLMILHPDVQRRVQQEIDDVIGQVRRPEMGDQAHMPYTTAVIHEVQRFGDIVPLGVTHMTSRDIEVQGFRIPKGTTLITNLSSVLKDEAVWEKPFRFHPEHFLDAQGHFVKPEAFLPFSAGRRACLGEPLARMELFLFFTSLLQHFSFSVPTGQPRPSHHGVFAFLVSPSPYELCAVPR

Cytochrome P450 3A4 = Cytochrome P450 3A4 (Homo sapiens, UniProt P08684); assay: Inhibition of human CYP3A4; format: ADME
Sequence of Cytochrome P450 3A4 (P08684 whole entry): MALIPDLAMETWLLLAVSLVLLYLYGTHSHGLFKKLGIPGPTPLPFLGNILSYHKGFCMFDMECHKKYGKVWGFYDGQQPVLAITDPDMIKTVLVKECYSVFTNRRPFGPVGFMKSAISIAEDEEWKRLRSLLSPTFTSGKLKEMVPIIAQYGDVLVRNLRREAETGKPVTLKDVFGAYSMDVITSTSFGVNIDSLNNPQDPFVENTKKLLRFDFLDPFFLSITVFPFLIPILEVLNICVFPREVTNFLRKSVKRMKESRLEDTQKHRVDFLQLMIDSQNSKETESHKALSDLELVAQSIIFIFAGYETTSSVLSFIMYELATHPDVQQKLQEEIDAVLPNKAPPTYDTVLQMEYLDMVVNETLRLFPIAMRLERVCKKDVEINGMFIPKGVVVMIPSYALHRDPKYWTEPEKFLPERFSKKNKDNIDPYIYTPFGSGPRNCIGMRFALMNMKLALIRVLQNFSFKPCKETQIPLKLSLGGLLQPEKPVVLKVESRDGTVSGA

[35] = molecular target: Voltage-gated inwardly rectifying potassium channel KCNH2 (Homo sapiens, UniProt Q12809); assay: Inhibition of human ERG by patch clamp assay
Sequence of Voltage-gated inwardly rectifying potassium channel KCNH2 (Q12809 whole entry): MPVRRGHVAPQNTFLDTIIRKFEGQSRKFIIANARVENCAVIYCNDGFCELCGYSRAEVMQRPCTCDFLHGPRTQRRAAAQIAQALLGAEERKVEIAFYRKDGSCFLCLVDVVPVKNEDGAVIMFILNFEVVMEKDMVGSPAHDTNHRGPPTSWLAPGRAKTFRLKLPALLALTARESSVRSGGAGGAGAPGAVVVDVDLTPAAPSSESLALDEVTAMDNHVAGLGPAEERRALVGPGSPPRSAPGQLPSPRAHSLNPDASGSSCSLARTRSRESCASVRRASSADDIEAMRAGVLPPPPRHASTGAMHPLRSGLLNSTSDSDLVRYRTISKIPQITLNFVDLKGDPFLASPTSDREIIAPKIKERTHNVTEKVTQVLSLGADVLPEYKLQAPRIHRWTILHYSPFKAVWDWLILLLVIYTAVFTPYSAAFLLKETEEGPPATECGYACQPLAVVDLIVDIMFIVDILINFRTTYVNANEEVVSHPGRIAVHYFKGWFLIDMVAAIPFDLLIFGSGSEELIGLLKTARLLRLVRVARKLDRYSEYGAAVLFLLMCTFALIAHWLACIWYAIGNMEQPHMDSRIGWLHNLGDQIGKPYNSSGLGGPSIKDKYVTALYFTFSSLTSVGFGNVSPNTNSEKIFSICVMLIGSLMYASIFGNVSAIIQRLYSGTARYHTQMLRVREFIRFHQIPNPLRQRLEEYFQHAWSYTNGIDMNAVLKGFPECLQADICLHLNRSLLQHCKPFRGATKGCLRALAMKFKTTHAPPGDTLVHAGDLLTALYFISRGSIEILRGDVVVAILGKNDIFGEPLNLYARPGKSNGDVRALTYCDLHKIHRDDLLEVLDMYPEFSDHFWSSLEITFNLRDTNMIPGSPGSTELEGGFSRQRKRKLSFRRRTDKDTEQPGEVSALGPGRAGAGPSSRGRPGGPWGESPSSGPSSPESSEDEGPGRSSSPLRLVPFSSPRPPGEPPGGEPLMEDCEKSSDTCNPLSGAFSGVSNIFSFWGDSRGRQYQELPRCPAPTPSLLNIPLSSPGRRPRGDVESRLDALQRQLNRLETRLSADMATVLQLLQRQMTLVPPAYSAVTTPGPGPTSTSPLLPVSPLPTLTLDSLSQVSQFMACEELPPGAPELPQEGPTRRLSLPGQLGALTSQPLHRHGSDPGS

[36] = Elimination half life in Han Wistar rat at 2 mg/kg, po; format: ADME, organism-based; settings: in vivo, read-out: beta t1/2 (converted)
Cytochrome P450 2C9 = Cytochrome P450 2C9 (Homo sapiens, UniProt P11712); assay: Inhibition of human CYP2C9; format: ADME
Sequence of Cytochrome P450 2C9 (P11712 whole entry): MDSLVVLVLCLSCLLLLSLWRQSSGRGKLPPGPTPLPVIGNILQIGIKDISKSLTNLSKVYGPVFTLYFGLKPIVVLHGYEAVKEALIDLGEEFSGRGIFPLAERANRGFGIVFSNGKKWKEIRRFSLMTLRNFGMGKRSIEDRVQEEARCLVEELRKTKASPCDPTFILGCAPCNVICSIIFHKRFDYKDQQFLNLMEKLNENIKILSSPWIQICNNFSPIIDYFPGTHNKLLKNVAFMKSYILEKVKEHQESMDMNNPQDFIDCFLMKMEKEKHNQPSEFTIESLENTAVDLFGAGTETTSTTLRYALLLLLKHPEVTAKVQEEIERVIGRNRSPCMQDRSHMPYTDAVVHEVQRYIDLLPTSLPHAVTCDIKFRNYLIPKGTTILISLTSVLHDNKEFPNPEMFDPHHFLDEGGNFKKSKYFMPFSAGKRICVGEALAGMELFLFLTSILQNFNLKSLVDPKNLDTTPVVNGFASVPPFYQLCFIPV

Papp A→B [2] [×10⁻⁶ cm/s]	fraction unbound at 5 µM [4]	fraction unbound at 5 µM [5]	efflux ratio (MDR1 (P-gp))	AUC(0-t) at 7 h [8] [µM·h]	Kp uu [16]	SMILES	AUC(0-t) at 7 h [11] [µM·h]	IC50 [12] [nM]	AUC(0-t) at 7 h [13] [µM·h]	Kp uu [17]	further results
2.5	0.0054	0.041	11	–	–	CN(C)C/C=C/C(=O)Nc1cc2c(Nc3ccc(F)c(Cl)c3)ncnc2cc1O[C@H]1CCOC1 [AFATINIB]	–	–	–	–	efflux ratio (BCRP [1]): 59; Kp uu [3]: 0.0066; Kp uu [6]: 0.27; Papp A→B (BCRP [7]): 1.3 ×10⁻⁶ cm/s
28	0.088	0.17	2.9	0.046	0.16	COc1cc2ncnc(Nc3cccc(Cl)c3F)c2cc1C(=O)N1CCOCC1	0.101	166	1.63	0.03	–
29	0.0083	0.022	0.18	0.001	0.79	COc1cc2ncnc(Nc3ccc(F)c(Cl)c3)c2cc1N1CCOCC1	0.085	1.5	0.077	0.42	–
32	0.022	0.058	0.29	0.002	0.93	COc1cc2ncnc(Nc3cccc(Cl)c3F)c2cc1N1CCOCC1	0.085	1.5	0.033	0.96	–
42	0.026	0.038	0.58	0.005	3.4	COc1cc2ncnc(Nc3cccc(Cl)c3F)c2cc1OC(=O)N1CCOCC1	0.104	4.1	0.042	1.7	–
19	0.029	0.045	1.7	–	–	C#Cc1cccc(Nc2ncnc3cc(OCCOC)c(OCCOC)cc23)c1 [ERLOTINIB]	–	–	–	–	Activity (PC-9 [19]): Active; efflux ratio (BCRP [1]): 5.4; Kp uu [3]: 0.11; Activity (Mus musculus): Toxic; Kp uu [6]: 0.29; Activity (PC-9 [20]): Active; Papp A→B (BCRP [7]): 14 ×10⁻⁶ cm/s
–	–	–	–	–	–	COc1cc2ncnc(Nc3cccc(Cl)c3F)c2cc1OC(=O)N1CCN(C)C2CC21 (stereo in doubt; 1j)	–	–	–	–	AUC (Cerebrospinal fluid): 0.028 µM·h; Papp ([2]; mdck-ii): 76 ×10⁻⁶ cm/s; Fu (Brain [21]): 1.8%; Vdss (Rattus norvegicus [22]): 2.5 L/kg; AUC (Brain [23]): 0.727 µM·h; AUC (Blood [24]): 0.74 µM·h; F (Rattus norvegicus [25]): 84%; Fu (Blood [26]): 2.4%; beta t1/2 (Rattus norvegicus [27]): 1.3 h; K(p,uu,CSF) [16]: 1.6; K(p,uu,brain) ([17]; brain): 0.74; AUC (Rattus norvegicus [28]): 2.315 µM·h
8.3	0.0039	–	–	–	–	COc1cc2ncnc(Nc3ccc(F)c(Cl)c3)c2cc1OCCCN1CCOCC1 [GEFITINIB]	–	–	–	–	Kp uu [3]: 0.021; AUC(0-t) at 7 h [29]: 0.093 µM·h; AUC(0-t) at 7 h [30]: 31.9 µM·h; AUC(0-t) at 7 h [31]: 5.65 µM·h; Kp uu [6]: 0.088; Papp A→B (BCRP [7]): 4.2 ×10⁻⁶ cm/s
32	0.03	0.078	0.33	0.05	0.76	COc1cc2ncnc(Nc3cccc(Cl)c3F)c2cc1CN1CCOCC1	1.01	6.6	0.834	0.47	CL/F [32]: 59 mL/min/kg; Vdss (Rattus norvegicus [33]): 2.8 L/kg; IC50 [34]: 3.8 nM; IC50 (Cytochrome P450 2D6): > 10000 nM; IC50 (Cytochrome P450 3A4): > 10000 nM; IC50 [35]: 17000 nM; bioavailability [14]: 44%; half-life [36]: 1.1 h; IC50 (Cytochrome P450 2C9): > 10000 nM
51	0.015	0.023	–	0.048	2.6	COc1cc2ncnc(Nc3cccc(Cl)c3F)c2cc1OC(=O)N1CCN(C)C[C@@H]1C	1.94	–	0.805	1.6	clearance [9]: 29 mL/min/kg; Vd [10]: 2.7 L/kg; bioavailability [14]: 83%; half-life [15]: 2.4 h; AUC(0-t) at 24 h [18]: 2.95 µM·h

SMILES	Papp A→B [2] [×10⁻⁶ cm/s]	fraction unbound at 5 µM [4]	fraction unbound at 5 µM [5]	efflux ratio (MDR1 (P-gp))	AUC(0-t) at 7 h [8] [µM·h]	Kp uu [16]	AUC(0-t) at 7 h [11] [µM·h]	IC50 [12] [nM]	AUC(0-t) at 7 h [13] [µM·h]	Kp uu [17]	further results
COc1cc2ncnc(Nc3cccc(Cl)c3F)c2cc1OC(=O)N1CCN(C)[C@H](C)C1	54	0.018	0.064	0.94	0.007	0.28	0.417	21.5	0.404	0.28	clearance [9]: 55 mL/min/kg; Vd [10]: 3.2 L/kg; bioavailability [14]: 92%; half-life [15]: 1.3 h; AUC(0-t) at 24 h [18]: 1.04 µM·h
COc1cc2ncnc(Nc3cccc(Cl)c3F)c2cc1OC(=O)N1CC[C@H](N(C)C)C1	17	0.024	0.049	0.34	0.068	0.56	0.798	2.7	2.48	0.15	–
COc1cc2ncnc(Nc3cccc(Cl)c3F)c2cc1OC(=O)N1CCN(C)[C@@H](C)C1	59	0.016	0.035	1.5	0.019	3.5	0.278	16.9	0.157	0.84	clearance [9]: 26 mL/min/kg; Vd [10]: 1.9 L/kg; bioavailability [14]: 24%; half-life [15]: 1.1 h; AUC(0-t) at 24 h [18]: 0.789 µM·h
COc1cc2ncnc(Nc3cccc(Cl)c3F)c2cc1OC(=O)N1CC[C@@H](N(C)C)C1	47	0.023	0.058	0.76	0.075	0.43	2.04	1.1	3	0.27	–
COc1cc2ncnc(Nc3cccc(Cl)c3F)c2cc1OC(=O)N1C[C@@H]2C[C@H]1CN2C	14	0.016	0.134	0.39	–	–	0.332	2.3	0.454	0.086	AUC (Cerebrospinal fluid; BLD = below limit of detection): BLD; K(p,uu,CSF) ([16]; BLD = below limit of detection): BLD
COc1cc2ncnc(Nc3cccc(Cl)c3F)c2cc1OC(=O)N1CCN(C)C2CC21 (stereo in doubt; 1i)	67	0.019	0.028	–	0.019	0.9	0.585	–	0.786	0.51	clearance [9]: 28 mL/min/kg; Vd [10]: 2 L/kg; F (Rattus norvegicus [25]): 52%; half-life [15]: 0.9 h; AUC(0-t) at 24 h [18]: 1.57 µM·h
